This passage reports Kd results from PubChem BioAssay AID1033 (Sanford-Burnham Center for Chemical Genomics, 2008).

Calls of active or inactive are those of the source. No rule for the calls is given here.

For the test, the target named is Chaperone protein DnaK (Escherichia coli (strain K12)) (UniProt P0A6Y8). Kind of test: binders of DnaK substrate-binding domain, biophysical, NMR, chaperone (AID 1033). Particulars: Purified DnaK SBD, NMR ligand binding.
Sequence of Chaperone protein DnaK (Escherichia coli (strain K12)) (P0A6Y8 whole entry, looked up, the tested form may be a part): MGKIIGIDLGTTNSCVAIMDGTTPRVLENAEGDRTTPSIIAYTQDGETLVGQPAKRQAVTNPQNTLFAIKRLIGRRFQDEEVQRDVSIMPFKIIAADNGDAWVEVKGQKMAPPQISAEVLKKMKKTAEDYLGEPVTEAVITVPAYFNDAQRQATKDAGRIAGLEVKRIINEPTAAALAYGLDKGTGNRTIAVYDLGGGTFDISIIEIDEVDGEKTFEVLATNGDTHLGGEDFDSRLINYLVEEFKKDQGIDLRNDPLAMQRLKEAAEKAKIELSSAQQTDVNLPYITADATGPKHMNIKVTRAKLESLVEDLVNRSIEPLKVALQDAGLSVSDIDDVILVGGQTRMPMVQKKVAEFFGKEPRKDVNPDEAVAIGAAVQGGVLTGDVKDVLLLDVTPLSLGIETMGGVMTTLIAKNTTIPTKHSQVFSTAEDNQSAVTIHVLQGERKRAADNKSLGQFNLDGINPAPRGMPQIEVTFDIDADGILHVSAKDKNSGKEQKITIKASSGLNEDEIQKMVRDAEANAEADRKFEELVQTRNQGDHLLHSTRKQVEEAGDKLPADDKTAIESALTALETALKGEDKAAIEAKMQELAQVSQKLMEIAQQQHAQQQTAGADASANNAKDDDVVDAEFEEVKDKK
Consider `CN(C)c1nc(N)nc(-c2nc3ccccc3s2)n1`, for which the Kd is > 4 mM (inactive). The figure for `CC1(C)CC(=O)c2cnn(-c3nc4ccccc4[nH]3)c2C1` is > 4 mM (inactive); for `COc1ccc2c(c1OC)C(=O)O[C@@H]2[C@@H]1c2cc3c(cc2CCN1C)OCO3` it is > 4 mM (inactive). For the compound `CC(=O)NC1C(=O)Nc2c(C)cc(C)cc21` (stereo not drawn), the Kd was > 4 mM (inactive). Turning to `O=C(c1ccncc1)c1ccc(Br)cc1`, the Kd was > 4 mM (inactive). On to `Nn1cnn2c(SCc3ccccc3)nnc12`, for which the Kd was > 4 mM (inactive). As to `COc1cc2c3cc1Oc1c(OC)c(OC)cc4c1[C@@H](Cc1cccc(c1)Oc1ccc(c(O)c1)C[C@@H]3N(C)CC2)N(C)CC4`, the Kd was > 4 mM (inactive). The figure for `CC(C)[C@@H]1CC[C@@H](C)C[C@H]1O` is > 4 mM (inactive).

In the case of `O=C(O)CCc1ccc2c(c1)OCO2`, the Kd was > 4 mM (inactive). For the compound `O=C(OCc1c(Cl)cccc1Cl)c1cnccn1`, the Kd was > 4 mM (inactive). In the case of `C/C1=C\CCC(=O)C2CC(C)(C)C2CC1` (stereo not drawn), the Kd was > 4 mM (inactive).

With `C=CCCCCCCCCCCCC(O)CC(O)CO` (stereo not drawn) (tested in a mixture with another compound), the Kd was > 4 mM (inactive). For the compound `CN(C)Cc1nc2c([nH]1)c(=O)[nH]c(=O)n2C`, the Kd was > 4 mM (inactive). To `CN1C(=O)c2ccc(C(=O)NC3CCCCC3)cc2C1=O` belongs > 4 mM (inactive); to `Nc1cc(F)cc(F)c1`, > 4 mM (inactive); to `S=C(Nc1ccccc1)Nc1nncs1`, > 4 mM (inactive). The figure for `CC(C)(C)NC(=O)CN1C(=O)c2ccccc2S1(=O)=O` is > 4 mM (inactive); for `Cc1cc(C)cc(OC(=O)N2CCOCC2)c1` it is > 4 mM (inactive). In the case of `CCN(CC)C(=O)c1n[nH]c(=O)c2ccccc12`, the Kd was > 4 mM (inactive). In the case of `COc1ccc2c(c1)OC/C(=C/c1ccc(OC)c(OC)c1)C2=O`, the Kd is > 4 mM (inactive). On to `C[n+]1cc2c3c(ccc2c2ccc4cc5c(cc4c21)OCO5)OCO3`, for which the Kd was > 4 mM (inactive). With `Nc1cccc(NC(=O)c2cccs2)c1`, the Kd is > 4 mM (inactive). To `O=C(NC1=NCCS1)c1ccc([N+](=O)[O-])cc1Cl` belongs > 4 mM (inactive).

Regarding `COc1cc(C)c(S(=O)(=O)N2CCN(C)CC2)cc1C`, the Kd was > 4 mM (inactive). Regarding `COc1ccc(S(N)(=O)=O)cc1`, the Kd is > 4 mM (inactive). `O=P(O)(Cc1ccccc1)c1ccccc1`: the Kd was > 4 mM (inactive). As for `C[C@@H]1CC[C@@]23CCC4(C)[C@@](C=CC5[C@@]6(C)CCC(=O)C(C)(C)C6CC[C@]54C)(OC2=O)C3[C@H]1C` (stereo partly drawn), the Kd is > 4 mM (inactive). Regarding `Oc1cc(O)c2c(c1)O[C@H](c1ccc(O)c(O)c1)[C@@H](O)C2`, the Kd is > 4 mM (inactive).

For the compound `OCCNc1nc2ccc(Cl)cc2[nH]1`, the Kd is > 4 mM (inactive). Turning to `Cc1ccccc1OCC(=O)O`, the Kd is > 4 mM (inactive). The figure for `O=C(Cc1ccccc1)Nc1c[nH]c(=O)[nH]c1=O` is > 4 mM (inactive); for `O=C(CC1SC(=O)NC1=O)Nc1nccs1` (stereo not drawn) it is > 4 mM (inactive); for `Cc1cc(C)n2nc(NCc3ccccc3)nc2n1` it is > 4 mM (inactive).

In the case of `O=c1ccnc(Nc2ccccc2O)[nH]1`, the Kd was > 4 mM (inactive). Turning to `CC(=O)O[C@H]1C[C@@H](OC(C)=O)C(C)(C)C2C[C@@H](O)[C@]3(C)C(CC[C@@]4(C)[C@H](c5ccoc5)OC(=O)[C@H]5O[C@]543)[C@]21C` (stereo partly drawn), the Kd was > 4 mM (inactive). For the compound `O=C(O)c1cn(-c2ccccc2)nc1-c1ccncc1`, the Kd is > 4 mM (inactive).

For the compound `Cc1cc(=O)n2[nH]c(COc3ccccc3)nc2n1`, the Kd is > 4 mM (inactive). The figure for `S=c1[nH]c2cccnc2[nH]1` is > 4 mM (inactive).

Usually Kd stands for the free concentration of one partner at which half of the binding sites on the other are occupied at equilibrium, for simple one-to-one binding.
